Assay results as given in ChEMBL document CHEMBL5441381, “ASAP - In vitro antiviral effect” (2024).

Legend:
[1] = test system: SARS-CoV-2; test: (§1) Functional immunofluorescence assay to measure dose dependent changes in antiviral-drug inhibitory efficacy against hCoV-19/USA-WA1/2020 in iPSC-Pneumocyte cells which are seeded prior to treatment, then infected with hCoV-19/USA-WA1/2020. Cells are fixed with 10 % formaldehyde, washed with PBS, permeabilized with permeabilization buffer, then washed with wash buffer. The cells are incubated with nucleoprotein primary antibody IC7C7. Following primary staining, cells are washed with wash buffer and incubated in a solution of with Alexa fluor 488 and DAPI. Infected and uninfected cells are visualized and analyzed by Gen5 software. The assay has been performed by Icahn School of Medicine at Mount Sinai.; type: organism-based, Homo sapiens; conditions: Severe acute respiratory syndrome coronavirus 2, Pneumocyte; for EC90: Baseline response 0 %, Maximum response 100 %
[2] = test system: SARS-CoV-2; test: as §1, with “hCoV-19/USA-WA1/2020 in HeLa-ACE2 cells which” for “hCoV-19/USA-WA1/2020 in iPSC-Pneumocyte cells which”, “prior to drug treatment, then” for “prior to treatment, then”; type: organism-based, Homo sapiens
[3] = Severe acute respiratory syndrome coronavirus 2, HeLa-ACE2

`CC(C)[C@@H](Nc1ncnc2[nH]c(-c3cnn(C)c3)cc12)c1ccc2c(c1)S(=O)(=O)CCC2` gave an EC50 [1] of 7.59 µM, an EC90 ([1]; Hill slope -0.905, Maximum measured 103.795 %, Minimum measured 0.206 %, R squared 0.828) greater than 50 µM and an EC50 [2, 3] greater than 20 µM. It also gave an EC90 ([2]; Severe acute respiratory syndrome coronavirus 2, HeLa-ACE2, Baseline response 0 %, Hill slope -10.363, Maximum measured 119.22 %, Maximum response 100 %, Minimum measured 72.714 %, R squared 0.37) greater than 20 µM.
`Cc1ncc(-c2cc3c(N[C@@H](c4ccc5c(c4)OCCO5)C(C)C)ncnc3[nH]2)cn1` was tested, and the EC50 [1] was 15.7 µM, the EC90 ([1]; EC90 CI (lower) 1.051 uM, EC90 CI (upper) 45.178 uM, Hill slope -2.659, Maximum measured 160.084 %, Minimum measured 9.251 %, R squared 0.626) was 36 µM and the EC50 [2, 3] was 4.51 µM. The EC90 ([2]; Severe acute respiratory syndrome coronavirus 2, HeLa-ACE2, Baseline response 0 %, Hill slope -0.659, Maximum measured 95.537 %, Maximum response 100 %, Minimum measured 29.329 %, R squared 0.973) was greater than 20 µM, the EC90 ([2]; Severe acute respiratory syndrome coronavirus 2, HeLa-ACE2, Baseline response 0 %, Hill slope -1.195, Maximum measured 100.014 %, Maximum response 100 %, Minimum measured 14.25 %, R squared 0.982) was greater than 20 µM and the EC50 ([2]; hela-ace2) was 4.51 µM.
`CC(C)[C@@H](Nc1ncnc2[nH]c(-c3cnn(CC(N)=O)c3)cc12)c1ccc2c(n1)OCCO2` was tested, and the EC50 [1] was greater than 50 µM, the EC90 ([1]; Hill slope -0.097, Maximum measured 94.962 %, Minimum measured 56.467 %, R squared 0.078) was greater than 50 µM and the EC50 [2, 3] was greater than 20 µM. It also gave an EC90 ([2]; Severe acute respiratory syndrome coronavirus 2, HeLa-ACE2, Maximum measured 122.738 %, Minimum measured 101.22 %) greater than 20 µM.
Work on `CNC(=O)Cn1cc(-c2cc3c(N[C@H](c4ccc5c(c4)S(=O)(=O)CCC5)C(C)C)ncnc3[nH]2)cn1` yielded an EC50 [1] greater than 50 µM, an EC90 ([1]; Hill slope -0.24, Maximum measured 106.027 %, Minimum measured 60.326 %, R squared 0.31) greater than 50 µM and an EC50 [2, 3] greater than 20 µM. For the same compound, the EC90 ([2]; Severe acute respiratory syndrome coronavirus 2, HeLa-ACE2, Baseline response 0 %, Hill slope 0.543, Maximum measured 108.143 %, Maximum response 100 %, Minimum measured 92.194 %, R squared 0.052) was greater than 20 µM.
Compound `CC(C)(C)[C@@H](Nc1ncnc2[nH]c(-c3cnn(CC(N)=O)c3)cc12)c1ccc2c(n1)OCCO2` has an EC50 [1] of 11.4 µM, an EC90 ([1]; Hill slope -0.772, Maximum measured 91.919 %, Minimum measured 11.328 %, R squared 0.786) greater than 50 µM and an EC50 [2, 3] greater than 20 µM. The EC90 ([2]; Severe acute respiratory syndrome coronavirus 2, HeLa-ACE2, Maximum measured 115.43 %, Minimum measured 93.464 %) was greater than 20 µM.
Work on `CC(C)[C@@H](Nc1ncnc2[nH]c(C(N)=O)cc12)c1ccc2c(c1)OCCO2` yielded an EC50 [1] greater than 50 µM, an EC90 ([1]; Hill slope -3.392, Maximum measured 162.718 %, Minimum measured 51.066 %, R squared 0.094) greater than 50 µM and an EC50 [2, 3] greater than 20 µM. The EC90 ([2]; Severe acute respiratory syndrome coronavirus 2, HeLa-ACE2, Maximum measured 95.443 %, Minimum measured 3.395 %) was greater than 20 µM and the EC90 ([2]; Severe acute respiratory syndrome coronavirus 2, HeLa-ACE2, Maximum measured 108.483 %, Minimum measured 88.736 %) was greater than 20 µM.
With `CC(C)[C@@H](Nc1ncnc2[nH]c(-c3cnn(C)c3C#N)cc12)c1ccc2c(c1)S(=O)(=O)CCC2` the EC50 [1] was 0.411 µM, the EC90 ([1]; EC90 CI (lower) 0.002 uM, EC90 CI (upper) 0.075 uM, Hill slope -0.637, Maximum measured 75.192 %, Minimum measured 0.111 %, R squared 0.781) was 13 µM and the EC50 [2, 3] was 3.51 µM. The EC90 ([2]; Severe acute respiratory syndrome coronavirus 2, HeLa-ACE2, Baseline response 0 %, EC90 CI (lower) 0.517 uM, EC90 CI (upper) 1.693 uM, Hill slope -1.661, Maximum measured 114.163 %, Maximum response 100 %, Minimum measured 4.545 %, R squared 0.935) was 13.2 µM.
`CC(C)[C@@H](Nc1ncnc2[nH]c(-c3cnn(C)n3)cc12)c1ccc2c(c1)OCCO2` showed an EC50 [1] of 13.3 µM, an EC90 ([1]; EC90 CI (lower) 0.166 uM, EC90 CI (upper) 294.285 uM, Hill slope -3.414, Maximum measured 157.709 %, Minimum measured 4.934 %, R squared 0.471) of 25.3 µM and an EC50 [2, 3] of 5.33 µM. It also gave an EC90 ([2]; Severe acute respiratory syndrome coronavirus 2, HeLa-ACE2, Baseline response 0 %, Hill slope -0.7, Maximum measured 92.76 %, Maximum response 100 %, Minimum measured 27.109 %, R squared 0.91) greater than 20 µM, an EC90 ([2]; Severe acute respiratory syndrome coronavirus 2, HeLa-ACE2, Baseline response 0 %, Hill slope -0.882, Maximum measured 101.658 %, Maximum response 100 %, Minimum measured 24.481 %, R squared 0.934) greater than 20 µM and an EC50 ([2]; hela-ace2) of 6.65 µM.
`CC(C)[C@@H](Nc1ncnc2[nH]c(-c3cnn(CC(N)=O)c3)cc12)c1ccc2c(c1)OCCO2` gave an EC50 [1] of 37.1 µM, an EC90 ([1]; Hill slope -4.011, Maximum measured 96.462 %, Minimum measured 23.083 %, R squared 0.242) greater than 50 µM and an EC50 [2, 3] greater than 50 µM. The EC90 ([2]; Severe acute respiratory syndrome coronavirus 2, HeLa-ACE2, Baseline response 0 %, Hill slope -10.038, Maximum measured 122.799 %, Maximum response 100 %, Minimum measured 73.654 %, R squared 0.191) was greater than 50 µM.
